{
  "source": "the kinase profiling compilation of Christmann-Franck et al. (2016)",
  "assay_in_all_cases": "KINOMEscan competition binding",
  "settings_in_all_cases": "compound 10.0 µM",
  "key": {"PHKG1 (human)": {"molecular_target": "PHKG1 (human) (UniProt Q16816)"}, "TESK1 (human)": {"molecular_target": "TESK1 (human) (UniProt Q15569)"}, "PLK2 (human)": {"molecular_target": "PLK2 (human) (UniProt Q9NYY3)"}, "MAPK3 (human)": {"molecular_target": "MAPK3 (human) (UniProt P27361)"}, "WEE2 (human)": {"molecular_target": "WEE2 (human) (UniProt P0C1S8)"}, "CHEK1 (human)": {"molecular_target": "CHEK1 (human) (UniProt O14757)"}, "MAPK13 (human)": {"molecular_target": "MAPK13 (human) (UniProt O15264)"}, "TLK1 (human)": {"molecular_target": "TLK1 (human) (UniProt Q9UKI8)", "sequence (Q9UKI8 whole entry, looked up)": "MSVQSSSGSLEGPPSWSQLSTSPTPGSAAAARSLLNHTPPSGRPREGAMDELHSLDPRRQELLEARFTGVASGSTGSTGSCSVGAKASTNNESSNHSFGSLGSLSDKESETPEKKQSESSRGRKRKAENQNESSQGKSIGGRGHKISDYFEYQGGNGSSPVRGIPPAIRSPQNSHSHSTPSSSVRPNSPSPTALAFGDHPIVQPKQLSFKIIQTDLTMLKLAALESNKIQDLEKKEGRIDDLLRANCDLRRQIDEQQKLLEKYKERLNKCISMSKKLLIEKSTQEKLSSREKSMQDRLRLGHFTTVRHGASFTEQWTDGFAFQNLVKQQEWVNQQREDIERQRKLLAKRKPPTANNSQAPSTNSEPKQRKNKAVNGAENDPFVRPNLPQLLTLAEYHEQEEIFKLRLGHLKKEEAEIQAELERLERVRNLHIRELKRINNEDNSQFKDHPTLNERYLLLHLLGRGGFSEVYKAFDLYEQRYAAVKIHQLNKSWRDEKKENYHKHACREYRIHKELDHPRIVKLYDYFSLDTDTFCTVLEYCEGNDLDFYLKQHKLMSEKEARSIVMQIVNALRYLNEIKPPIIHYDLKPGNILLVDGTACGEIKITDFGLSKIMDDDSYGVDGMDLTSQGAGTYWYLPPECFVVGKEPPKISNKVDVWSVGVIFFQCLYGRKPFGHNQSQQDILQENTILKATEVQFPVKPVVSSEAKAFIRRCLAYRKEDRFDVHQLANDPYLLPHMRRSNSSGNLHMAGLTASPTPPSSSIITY"}, "MARK2 (human)": {"molecular_target": "MARK2 (human) (UniProt Q7KZI7)", "sequence (Q7KZI7 whole entry, looked up)": "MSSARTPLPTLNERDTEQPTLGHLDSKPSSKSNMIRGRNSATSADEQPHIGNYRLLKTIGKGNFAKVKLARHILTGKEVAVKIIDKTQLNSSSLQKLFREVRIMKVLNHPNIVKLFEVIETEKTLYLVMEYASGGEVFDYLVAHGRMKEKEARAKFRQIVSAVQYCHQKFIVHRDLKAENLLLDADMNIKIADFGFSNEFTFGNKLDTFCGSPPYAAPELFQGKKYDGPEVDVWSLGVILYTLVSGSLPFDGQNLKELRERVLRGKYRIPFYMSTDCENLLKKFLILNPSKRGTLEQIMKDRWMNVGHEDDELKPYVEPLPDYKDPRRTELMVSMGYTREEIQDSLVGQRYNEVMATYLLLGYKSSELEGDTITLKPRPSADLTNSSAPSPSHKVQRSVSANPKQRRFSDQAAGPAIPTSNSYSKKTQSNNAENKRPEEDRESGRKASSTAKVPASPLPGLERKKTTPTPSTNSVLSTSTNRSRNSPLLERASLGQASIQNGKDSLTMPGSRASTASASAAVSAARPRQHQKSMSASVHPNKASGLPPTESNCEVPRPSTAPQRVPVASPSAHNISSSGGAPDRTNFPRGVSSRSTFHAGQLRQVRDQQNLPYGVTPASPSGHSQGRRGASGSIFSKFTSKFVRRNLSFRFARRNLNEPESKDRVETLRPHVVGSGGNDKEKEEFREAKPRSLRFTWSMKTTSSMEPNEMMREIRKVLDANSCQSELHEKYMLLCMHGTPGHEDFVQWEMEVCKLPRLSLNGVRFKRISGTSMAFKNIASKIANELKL"}, "SRPK2 (human)": {"molecular_target": "SRPK2 (human) (UniProt P78362)", "sequence (P78362 whole entry, looked up)": "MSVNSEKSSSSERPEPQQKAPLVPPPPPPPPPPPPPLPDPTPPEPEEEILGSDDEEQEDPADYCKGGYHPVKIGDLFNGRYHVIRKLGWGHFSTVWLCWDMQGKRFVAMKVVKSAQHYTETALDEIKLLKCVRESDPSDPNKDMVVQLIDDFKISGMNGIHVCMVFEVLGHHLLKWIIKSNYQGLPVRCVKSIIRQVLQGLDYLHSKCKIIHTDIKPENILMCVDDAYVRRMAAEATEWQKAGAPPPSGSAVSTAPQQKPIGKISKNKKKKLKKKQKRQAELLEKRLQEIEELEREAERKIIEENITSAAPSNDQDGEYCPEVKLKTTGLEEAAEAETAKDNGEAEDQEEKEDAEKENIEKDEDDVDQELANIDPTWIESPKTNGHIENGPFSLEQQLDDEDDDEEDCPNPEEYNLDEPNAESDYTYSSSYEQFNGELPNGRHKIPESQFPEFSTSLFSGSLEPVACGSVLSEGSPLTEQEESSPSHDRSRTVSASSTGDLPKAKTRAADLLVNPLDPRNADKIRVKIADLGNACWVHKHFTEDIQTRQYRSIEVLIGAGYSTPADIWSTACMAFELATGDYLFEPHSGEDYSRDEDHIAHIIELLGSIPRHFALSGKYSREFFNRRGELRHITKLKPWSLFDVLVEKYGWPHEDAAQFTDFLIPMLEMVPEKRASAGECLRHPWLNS"}, "DYRK2 (human)": {"molecular_target": "DYRK2 (human) (UniProt Q92630)"}, "WEE1 (human)": {"molecular_target": "WEE1 (human) (UniProt P30291)"}, "STK24 (human)": {"molecular_target": "STK24 (human) (UniProt Q9Y6E0)"}, "IRAK1 (human)": {"molecular_target": "IRAK1 (human) (UniProt P51617)"}, "CDK15 (human)": {"molecular_target": "CDK15 (human) (UniProt Q96Q40)"}, "PIK3C2G (human)": {"molecular_target": "PIK3C2G (human) (UniProt O75747)"}, "TXK (human)": {"molecular_target": "TXK (human) (UniProt P42681)"}, "TEK (human)": {"molecular_target": "TEK (human) (UniProt Q02763)"}, "GAK (human)": {"molecular_target": "GAK (human) (UniProt O14976)"}, "STK38L (human)": {"molecular_target": "STK38L (human) (UniProt Q9Y2H1)"}, "NEK1 (human)": {"molecular_target": "NEK1 (human) (UniProt Q96PY6)"}, "[1]": {"molecular_target": "JAK1 JH2 pseudokinase (human) (UniProt P23458)"}, "PLK1 (human)": {"molecular_target": "PLK1 (human) (UniProt P53350)"}, "[2]": {"system": "PIK3CA (human), P42336 [Q546K]", "sequence (P42336 whole entry Q546K, looked up)": "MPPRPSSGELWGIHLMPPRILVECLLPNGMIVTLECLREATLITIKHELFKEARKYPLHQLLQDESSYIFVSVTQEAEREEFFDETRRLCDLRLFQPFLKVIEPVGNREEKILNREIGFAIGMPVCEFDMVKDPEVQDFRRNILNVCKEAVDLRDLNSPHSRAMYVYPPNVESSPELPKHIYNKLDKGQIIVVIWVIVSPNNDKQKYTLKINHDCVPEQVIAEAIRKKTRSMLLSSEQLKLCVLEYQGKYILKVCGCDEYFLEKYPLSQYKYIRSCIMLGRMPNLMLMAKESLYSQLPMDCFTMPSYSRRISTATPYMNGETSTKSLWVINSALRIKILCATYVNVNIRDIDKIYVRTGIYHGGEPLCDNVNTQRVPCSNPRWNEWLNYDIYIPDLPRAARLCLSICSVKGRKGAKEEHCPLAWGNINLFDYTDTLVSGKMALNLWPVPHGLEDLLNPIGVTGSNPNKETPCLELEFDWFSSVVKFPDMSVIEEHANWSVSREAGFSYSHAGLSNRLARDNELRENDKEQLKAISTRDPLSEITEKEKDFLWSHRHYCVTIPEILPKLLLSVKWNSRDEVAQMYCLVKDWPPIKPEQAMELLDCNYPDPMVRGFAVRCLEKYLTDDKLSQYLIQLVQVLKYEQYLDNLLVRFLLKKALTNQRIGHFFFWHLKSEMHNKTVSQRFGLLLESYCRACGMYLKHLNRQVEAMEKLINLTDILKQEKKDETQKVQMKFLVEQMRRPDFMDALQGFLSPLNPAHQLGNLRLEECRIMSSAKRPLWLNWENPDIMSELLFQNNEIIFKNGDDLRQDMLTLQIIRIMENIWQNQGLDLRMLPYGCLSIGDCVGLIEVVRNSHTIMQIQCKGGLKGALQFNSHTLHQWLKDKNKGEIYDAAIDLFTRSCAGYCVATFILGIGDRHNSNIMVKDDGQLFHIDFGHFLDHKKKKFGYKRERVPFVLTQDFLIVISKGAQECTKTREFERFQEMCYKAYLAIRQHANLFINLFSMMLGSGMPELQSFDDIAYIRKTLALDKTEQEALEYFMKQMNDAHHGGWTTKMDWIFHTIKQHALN"}, "BRSK2 (human)": {"molecular_target": "BRSK2 (human) (UniProt Q8IWQ3)"}, "FGFR2 (human)": {"molecular_target": "FGFR2 (human) (UniProt P21802)"}, "FGFR4 (human)": {"molecular_target": "FGFR4 (human) (UniProt P22455)"}, "GSK3B (human)": {"molecular_target": "GSK3B (human) (UniProt P49841)", "sequence (P49841 whole entry, looked up)": "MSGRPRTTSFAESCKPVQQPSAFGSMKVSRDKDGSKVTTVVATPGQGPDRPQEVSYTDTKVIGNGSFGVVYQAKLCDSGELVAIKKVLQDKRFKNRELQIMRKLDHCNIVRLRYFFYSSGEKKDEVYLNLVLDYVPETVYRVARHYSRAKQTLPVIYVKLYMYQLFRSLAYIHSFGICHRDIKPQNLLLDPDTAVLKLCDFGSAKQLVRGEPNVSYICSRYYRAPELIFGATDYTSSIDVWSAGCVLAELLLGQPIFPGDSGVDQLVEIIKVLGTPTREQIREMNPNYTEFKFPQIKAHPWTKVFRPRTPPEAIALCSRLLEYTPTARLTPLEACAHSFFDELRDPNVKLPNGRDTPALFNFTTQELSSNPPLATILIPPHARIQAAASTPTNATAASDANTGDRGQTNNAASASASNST"}, "ITK (human)": {"molecular_target": "ITK (human) (UniProt Q08881)"}, "CLK3 (human)": {"molecular_target": "CLK3 (human) (UniProt P49761)"}, "RPS6KA6 KD1 (human)": {"molecular_target": "RPS6KA6 KD1 (human) (UniProt Q9UK32)"}, "TLK2 (human)": {"molecular_target": "TLK2 (human) (UniProt Q86UE8)"}, "MAPK14 (human)": {"molecular_target": "MAPK14 (human) (UniProt Q16539)", "sequence (Q16539 whole entry, looked up)": "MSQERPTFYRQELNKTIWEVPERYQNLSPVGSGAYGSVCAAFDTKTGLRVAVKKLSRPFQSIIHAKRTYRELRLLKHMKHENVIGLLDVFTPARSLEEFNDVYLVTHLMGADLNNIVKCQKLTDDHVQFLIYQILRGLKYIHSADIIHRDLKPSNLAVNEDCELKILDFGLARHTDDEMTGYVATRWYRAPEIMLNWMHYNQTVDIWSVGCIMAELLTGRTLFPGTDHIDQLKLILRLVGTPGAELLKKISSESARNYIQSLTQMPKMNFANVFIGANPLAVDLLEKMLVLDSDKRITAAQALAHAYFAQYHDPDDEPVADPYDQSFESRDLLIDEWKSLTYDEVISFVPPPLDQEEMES"}, "NEK2 (human)": {"molecular_target": "NEK2 (human) (UniProt P51955)", "sequence (P51955 whole entry, looked up)": "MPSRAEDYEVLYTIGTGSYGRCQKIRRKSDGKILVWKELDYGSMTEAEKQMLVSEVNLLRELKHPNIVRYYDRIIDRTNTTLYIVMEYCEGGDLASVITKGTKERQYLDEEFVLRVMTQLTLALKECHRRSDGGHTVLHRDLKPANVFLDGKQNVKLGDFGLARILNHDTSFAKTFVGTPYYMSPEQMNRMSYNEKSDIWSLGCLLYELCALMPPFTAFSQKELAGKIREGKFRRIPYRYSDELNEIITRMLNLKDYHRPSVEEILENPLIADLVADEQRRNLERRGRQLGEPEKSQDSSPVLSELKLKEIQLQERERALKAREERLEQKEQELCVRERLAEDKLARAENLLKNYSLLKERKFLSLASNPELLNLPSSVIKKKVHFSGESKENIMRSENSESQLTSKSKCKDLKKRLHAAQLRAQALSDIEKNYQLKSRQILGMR"}, "PKMYT1 (human)": {"molecular_target": "PKMYT1 (human) (UniProt Q99640)"}, "RPS6KA5 KD1 (human)": {"molecular_target": "RPS6KA5 KD1 (human) (UniProt O75582)"}, "[3]": {"system": "BRAF (human), P15056 [V600E]"}, "RPS6KA6 KD2 (human)": {"molecular_target": "RPS6KA6 KD2 (human) (UniProt Q9UK32)"}, "ACVR1B (human)": {"molecular_target": "ACVR1B (human) (UniProt P36896)", "sequence (P36896 whole entry, looked up)": "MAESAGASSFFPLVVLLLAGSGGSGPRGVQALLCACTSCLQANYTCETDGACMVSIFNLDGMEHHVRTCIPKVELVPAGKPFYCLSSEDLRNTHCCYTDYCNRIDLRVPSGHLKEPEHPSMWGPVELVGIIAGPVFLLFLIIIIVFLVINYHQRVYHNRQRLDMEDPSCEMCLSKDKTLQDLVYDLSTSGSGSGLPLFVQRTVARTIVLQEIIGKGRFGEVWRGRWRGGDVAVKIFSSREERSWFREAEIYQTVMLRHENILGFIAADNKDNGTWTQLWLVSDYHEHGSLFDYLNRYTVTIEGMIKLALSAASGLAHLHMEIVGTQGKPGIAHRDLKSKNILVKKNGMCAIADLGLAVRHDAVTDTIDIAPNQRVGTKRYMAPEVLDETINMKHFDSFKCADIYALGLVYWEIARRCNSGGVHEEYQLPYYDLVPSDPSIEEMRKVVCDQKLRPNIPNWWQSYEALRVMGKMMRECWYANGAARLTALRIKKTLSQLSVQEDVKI"}, "TGFBR2 (human)": {"molecular_target": "TGFBR2 (human) (UniProt P37173)"}, "PAK6 (human)": {"molecular_target": "PAK6 (human) (UniProt Q9NQU5)"}},
  "data": [
    {"smiles": "Cc1cnc(-c2cnc(NCCNc3ccc(C#N)cn3)nc2-c2ccc(Cl)cc2Cl)[nH]1", "values": [
      {"measurement": "kinase still bound, per cent of control", "setting": "PHKG1 (human)", "result": 100, "unit": "%"},
      {"measurement": "kinase still bound, per cent of control", "setting": "TESK1 (human)", "result": 100, "unit": "%"},
      {"measurement": "kinase still bound, per cent of control", "setting": "PLK2 (human)", "result": 79, "unit": "%"},
      {"measurement": "kinase still bound, per cent of control", "setting": "MAPK3 (human)", "result": 100, "unit": "%"},
      {"measurement": "kinase still bound, per cent of control", "setting": "WEE2 (human)", "result": 100, "unit": "%"},
      {"measurement": "kinase still bound, per cent of control", "setting": "CHEK1 (human)", "result": 100, "unit": "%"},
      {"measurement": "kinase still bound, per cent of control", "setting": "MAPK13 (human)", "result": 100, "unit": "%"},
      {"measurement": "kinase still bound, per cent of control", "setting": "TLK1 (human)", "result": 75, "unit": "%"},
      {"measurement": "kinase still bound, per cent of control", "setting": "MARK2 (human)", "result": 100, "unit": "%"},
      {"measurement": "kinase still bound, per cent of control", "setting": "SRPK2 (human)", "result": 100, "unit": "%"},
      {"measurement": "kinase still bound, per cent of control", "setting": "DYRK2 (human)", "result": 68, "unit": "%"},
      {"measurement": "kinase still bound, per cent of control", "setting": "WEE1 (human)", "result": 98, "unit": "%"},
      {"measurement": "kinase still bound, per cent of control", "setting": "STK24 (human)", "result": 97, "unit": "%"},
      {"measurement": "kinase still bound, per cent of control", "setting": "IRAK1 (human)", "result": 100, "unit": "%"},
      {"measurement": "kinase still bound, per cent of control", "setting": "CDK15 (human)", "result": 95, "unit": "%"},
      {"measurement": "kinase still bound, per cent of control", "setting": "PIK3C2G (human)", "result": 100, "unit": "%"},
      {"measurement": "kinase still bound, per cent of control", "setting": "TXK (human)", "result": 100, "unit": "%"},
      {"measurement": "kinase still bound, per cent of control", "setting": "TEK (human)", "result": 100, "unit": "%"},
      {"measurement": "kinase still bound, per cent of control", "setting": "GAK (human)", "result": 79, "unit": "%"},
      {"measurement": "kinase still bound, per cent of control", "setting": "STK38L (human)", "result": 100, "unit": "%"},
      {"measurement": "kinase still bound, per cent of control", "setting": "NEK1 (human)", "result": 79, "unit": "%"},
      {"measurement": "kinase still bound, per cent of control", "setting": "[1]", "result": 87, "unit": "%"},
      {"measurement": "kinase still bound, per cent of control", "setting": "PLK1 (human)", "result": 5.4, "unit": "%"},
      {"measurement": "kinase still bound, per cent of control", "setting": "[2]", "result": 100, "unit": "%"},
      {"measurement": "kinase still bound, per cent of control", "setting": "BRSK2 (human)", "result": 97, "unit": "%"},
      {"measurement": "kinase still bound, per cent of control", "setting": "FGFR2 (human)", "result": 98, "unit": "%"},
      {"measurement": "kinase still bound, per cent of control", "setting": "FGFR4 (human)", "result": 100, "unit": "%"},
      {"measurement": "kinase still bound, per cent of control", "setting": "GSK3B (human)", "result": 1, "unit": "%"},
      {"measurement": "kinase still bound, per cent of control", "setting": "ITK (human)", "result": 100, "unit": "%"},
      {"measurement": "kinase still bound, per cent of control", "setting": "CLK3 (human)", "result": 97, "unit": "%"},
      {"measurement": "kinase still bound, per cent of control", "setting": "RPS6KA6 KD1 (human)", "result": 89, "unit": "%"},
      {"measurement": "kinase still bound, per cent of control", "setting": "TLK2 (human)", "result": 80, "unit": "%"},
      {"measurement": "kinase still bound, per cent of control", "setting": "MAPK14 (human)", "result": 98, "unit": "%"},
      {"measurement": "kinase still bound, per cent of control", "setting": "NEK2 (human)", "result": 72, "unit": "%"},
      {"measurement": "kinase still bound, per cent of control", "setting": "PKMYT1 (human)", "result": 100, "unit": "%"},
      {"measurement": "kinase still bound, per cent of control", "setting": "RPS6KA5 KD1 (human)", "result": 98, "unit": "%"},
      {"measurement": "kinase still bound, per cent of control", "setting": "[3]", "result": 49, "unit": "%"},
      {"measurement": "kinase still bound, per cent of control", "setting": "RPS6KA6 KD2 (human)", "result": 83, "unit": "%"},
      {"measurement": "kinase still bound, per cent of control", "setting": "ACVR1B (human)", "result": 100, "unit": "%"},
      {"measurement": "kinase still bound, per cent of control", "setting": "TGFBR2 (human)", "result": 100, "unit": "%"},
      {"measurement": "kinase still bound, per cent of control", "setting": "PAK6 (human)", "result": 100, "unit": "%"}
    ]}
  ]
}
